Calls of active or inactive are those of the source. How the calls were made is not given here.

The data set deals with rodent carcinogenicity bioassays, tumor incidence. As to the kind of experiment: CCRIS carcinogenicity studies. As to conditions: Dose: 0, Dose: 0. An outline of the steps: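 NCI-built, expert-reviewed records of carcinogenicity and related test outcomes (mutagenicity, tumor promotion/inhibition) compiled from published and report sources, historical span 1985-2011, not updated.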

With `C=CC(=C)Cl`, the carcinogen call (Species: HAMSTER, Strain/Sex: SYRIAN/FEMALE, Route: INHALATION, 10, 50 PPM 6 HR/D 5 D/WK FOR 18 MO (STUDY DURATION: 18 MO), 10, 50 PPM 6 HR/D 5 D/WK FOR 18 MO (STUDY DURATION: 18 MO)) was “inactive; negative”; the carcinogen call (Species: HAMSTER, Strain/Sex: SYRIAN/MALE, Route: INHALATION, 10, 50 PPM 6HR/D 5 D/WK FOR 18 MO (STUDY DURATION: 18 MO), 10, 50 PPM 6HR/D 5 D/WK FOR 18 MO (STUDY DURATION: 18 MO)) is “inactive; negative”; the carcinogen call (Species: MOUSE, Strain/Sex: ALBINO/MALE, FEMALE, Route: INHALATION, 2.9, 19.18, 189 MG/M3 4 HR/D 6 D/WK FOR 7 MO (STUDY DURATION: 8 MO), 2.9, 19.18, 189 MG/M3 4 HR/D 6 D/WK FOR 7 MO (STUDY DURATION: 8 MO), Tumor Site: Type of Lesion: LUNG: TUMOR) is “active; positive”; the carcinogen call (Species: MOUSE, Strain/Sex: B6C3F1/FEMALE, Route: INHALATION, 12.8, 32, 80 PPM 6 HR/D 5 D/WK FOR 105 WK (STUDY DURATION: 106 WK), 12.8, 32, 80 PPM 6 HR/D 5 D/WK FOR 105 WK (STUDY DURATION: 106 WK), Tumor Site: Type of Lesion: LUNG: ALVEOLAR/BRONCHIOLAR ADENOMA, ALVEOLAR/BRONCHIOLAR CARCINOMA, CIRCULATORY SYSTEM: HEMANGIOMA, HEMANGIOSARCOMA, HAR, Tumor Site: Type of Lesion: LUNG: ALVEOLAR/BRONCHIOLAR ADENOMA, ALVEOLAR/BRONCHIOLAR CARCINOMA, CIRCULATORY SYSTEM: HEMANGIOMA, HEMANGIOSARCOMA, HAR) was “active; positive”; the carcinogen call (Species: MOUSE, Strain/Sex: B6C3F1/MALE, Route: INHALATION, 12.8, 32, 80 PPM 6 HR/D 5 D/WK FOR 105 WK (STUDY DURATION: 106 WK), 12.8, 32, 80 PPM 6 HR/D 5 D/WK FOR 105 WK (STUDY DURATION: 106 WK), Tumor Site: Type of Lesion: LUNG: ALVEOLAR/BRONCHIOLAR ADENOMA, ALVEOLAR/BRONCHIOLAR CARCINOMA, CIRCULATORY SYSTEM: HEMANGIOSARCOMA, HEMANGIOSARCOMA) is “active; positive”; the carcinogen call (Species: RAT, Strain/Sex: F344/FEMALE, Route: INHALATION, 12.8, 32, 80 PPM 6 HR/D 5 D/WK FOR 105 WK (STUDY DURATION: 106 WK), 12.8, 32, 80 PPM 6 HR/D 5 D/WK FOR 105 WK (STUDY DURATION: 106 WK), Tumor Site: Type of Lesion: ORAL CAVITY: SQUAMOUS CELL PAPILLOMA, SQUAMOUS CELL PAPILLOMA OR CARCINOMA, THYROID GLAND: FOLLICULAR CELL ADENOMA OR CA) was “active; positive”. In addition, the carcinogen call (Species: RAT, Strain/Sex: F344/MALE, Route: INHALATION, 12.8, 32, 80 PPM 6 HR/D 5 D/WK FOR 105 WK (STUDY DURATION: 106 WK), 12.8, 32, 80 PPM 6 HR/D 5 D/WK FOR 105 WK (STUDY DURATION: 106 WK), Tumor Site: Type of Lesion: ORAL CAVITY: SQUAMOUS CELL PAPILLOMA, SQUAMOUS PAPILLOMA OR CARCINOMA, THYROID GLAND: FOLLICULAR CELL ADENOMA OR CARCINO) was “active; positive”; the carcinogen call (Species: RAT, Strain/Sex: WISTAR/FEMALE, Route: INHALATION, 10, 50 PPM 6 HR/D 5D/WK FOR 24 MO AT 72 WK 73 FEMALE RATS IN LOW DOSE GROUP DIED DUE TO MALFUNCTION IN EXPOSURE APPAR, 10, 50 PPM 6 HR/D 5D/WK FOR 24 MO AT 72 WK 73 FEMALE RATS IN LOW DOSE GROUP DIED DUE TO MALFUNCTION IN EXPOSURE APPAR) is “inactive; negative”; the carcinogen call (Species: RAT, Strain/Sex: WISTAR/MALE, Route: INHALATION, 10, 50 PPM 6 HR/D 5D/WK FOR 24 MO AT 72 WK 82 MALE RATS IN LOW DOSE GROUP DIED DUE TO MALFUNCTION IN EXPOSURE APPARAT, 10, 50 PPM 6 HR/D 5D/WK FOR 24 MO AT 72 WK 82 MALE RATS IN LOW DOSE GROUP DIED DUE TO MALFUNCTION IN EXPOSURE APPARAT) was “inactive; negative”.

Regarding `CCOP(=O)(NC(C)C)Oc1ccc(SC)c(C)c1` (stereo unspecified), the carcinogen call was “inactive; negative” (Species: Mouse, Strain/Sex: CD-1/Female (50/Group), Route: Oral, 2, 10, 50 ppm of 89.2-90.5% fenamiphos in diet for 20 mo, study duration 20 mo, 2, 10, 50 ppm of 89.2-90.5% fenamiphos in diet for 20 mo, study duration 20 mo); “inactive; negative” (Species: Mouse, Strain/Sex: CD-1/Male (50/Group), Route: Oral, 2, 10, 50 ppm of 89.2-90.5% fenamiphos in diet for 20 mo, study duration 20 mo, 2, 10, 50 ppm of 89.2-90.5% fenamiphos in diet for 20 mo, study duration 20 mo); “inactive; negative” (Species: Rat, Strain/Sex: Strain not specified/Female (50/Group), Route: Oral, 2, 10, 50 ppm Nemacure (89% fenamiphos) in diet for 2 yr, study duration 2 yr, 2, 10, 50 ppm Nemacure (89% fenamiphos) in diet for 2 yr, study duration 2 yr); “inactive; negative” (Species: Rat, Strain/Sex: Strain not specified/Male (50/Group), Route: Oral, 2, 10, 50 ppm Nemacure (89% fenamiphos) in diet for 2 yr, study duration 2 yr, 2, 10, 50 ppm Nemacure (89% fenamiphos) in diet for 2 yr, study duration 2 yr).

With `OCc1c2ccccc2c2ccc3cccc4ccc1c2c43`, the carcinogen call runs as follows: (Species: MOUSE, Strain/Sex: B6C3F1/MALE, Route: INTRAPERITONEAL, 0.0025, 0.005, 0.015 UMOL/G ONCE AT 12 DAYS OF AGE (STUDY DURATION: 10 MO), 0.0025, 0.005, 0.015 UMOL/G ONCE AT 12 DAYS OF AGE (STUDY DURATION: 10 MO), Tumor Site: Type of Lesion: LIVER: HEPATOMA) “active; positive”; (Species: RAT, Strain/Sex: SPRAGUE-DAWLEY/FEMALE, Route: SUBCUTANEOUS, 0.2 UMOL 3/WK FOR 20 DOSES (STUDY DURATION: 52 WK), Tumor Site: Type of Lesion: INJECTION SITE: SARCOMA) “active; positive”.

Turning to `O=CCCl`, the carcinogen call (Species: MOUSE, Strain/Sex: B6C3F1/MALE, Route: ORAL, 0.1 G/L DISTILLED DRINKING WATER FOR STUDY DURATION (17 MG/KG/D) (STUDY DURATION: 104 WK), Tumor Site: Type of Lesion: LIVER: HEPATOCELLULAR CARCINOMA, HEPATOCELLULAR ADENOMA) was “active; positive”.

As for `O=C1c2ccccc2CN2C(=O)c3ccccc3CN12`, the carcinogen call is “active; positive” (Species: MOUSE, Strain/Sex: BALB/FEMALE, Route: ORAL, 300, 600, 1200 PPM IN DIET FOR 80 WK (STUDY DURATION: 120 WK), 300, 600, 1200 PPM IN DIET FOR 80 WK (STUDY DURATION: 120 WK), Tumor Site: Type of Lesion: LIVER: HEPATOCELLULAR ADENOMA OR CARCINOMA, ANGIOSARCOMA) and “active; positive” (Species: MOUSE, Strain/Sex: BALB/MALE, Route: ORAL, 300, 600, 1200 PPM IN DIET FOR 80 WK (STUDY DURATION: 120 WK), 300, 600, 1200 PPM IN DIET FOR 80 WK (STUDY DURATION: 120 WK), Tumor Site: Type of Lesion: LIVER: ANGIOMA, ANGIOSARCOMA).

`O=C(O)[C@@H](O)[C@@H](O)[C@H](O)[C@@H](O)C(=O)[O-].O=C(O)[C@@H](O)[C@@H](O)[C@H](O)[C@@H](O)C(=O)[O-].O=C(O)[C@@H](O)[C@@H](O)[C@H](O)[C@@H](O)C(=O)[O-].[Fe+3]`: the carcinogen call (Species: RAT, Strain/Sex: WISTAR/MALE, Route: INTRAPERITONEAL, 5 MG/KG IN GLUCOSE SOLUTION 1/D 6 D/WK FOR 3 MO (STUDY DURATION: 1 YR, 3 MO), Tumor Site: Type of Lesion: PERITONEAL CAVITY: MESOTHELIOMA) was “active; positive”.

Turning to `CCCCNC(=O)n1c(NC(=O)OC)nc2ccccc21`, the carcinogen call (Species: Mouse, Strain/Sex: CD-1/Female (80/group), Route: Oral, 500, 1500, 7500 for 37 wk reduced to 5000 ppm in feed for 2 yr, 500, 1500, 7500 for 37 wk reduced to 5000 ppm in feed for 2 yr, Tumor Site: Type of Lesion: Liver: Hepatocellular adenoma (2/64, 2/60, 7/73, 7/68), Hepatocellular carcinoma (2/64, 7/60, 6/73, 14/68), Combined (4/, Tumor Site: Type of Lesion: Liver: Hepatocellular adenoma (2/64, 2/60, 7/73, 7/68), Hepatocellular carcinoma (2/64, 7/60, 6/73, 14/68), Combined (4/) is “active; positive; purity 99%; additional study details in california epa department of p” and the carcinogen call (Species: Mouse, Strain/Sex: CD-1/Male (80/group), Route: Oral, 500, 1500, 7500 for 37 wk reduced to 5000 ppm in feed for 2 yr, 500, 1500, 7500 for 37 wk reduced to 5000 ppm in feed for 2 yr, Tumor Site: Type of Lesion: Liver: Hepatocellular adenoma (9/60, 9/75, 11/73, 10/76), Hepatocellular carcinoma (16/60, 26/75, 41/73, 17/76), Combine, Tumor Site: Type of Lesion: Liver: Hepatocellular adenoma (9/60, 9/75, 11/73, 10/76), Hepatocellular carcinoma (16/60, 26/75, 41/73, 17/76), Combine) was “active; positive; purity 99%; additional study details in california epa department of p”.
